Data as given in PubChem BioAssay AID330 (DTP/NCI, 2004).
Values joined by “and” are separate entries in the source; they are usually repeats but may differ in a detail not shown here. Equal entries are not always repeated. Inconclusive results and toxic doses are left out.

Tested on: P388 leukemia ip, CD2F1 mice, survival T/C
Assay: NCI In Vivo Anticancer Drug Screen. Data for tumor model P388 Leukemia (intraperitoneal) in CD2F1 (CDF1) mice
Details: endpoint: median survival time, higher = longer survival
Procedure, shortened: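 Mice carrying the transplanted tumor received test compound or vehicle. Survival was recorded in each group, and the value is the treated-group measurement divided by that of the vehicle-treated control group.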

[1] = dose: 100.0 mg/kg/injection, schedule: Q04DX003 (ip), vehicle: saline with Tween-80
[2] = dose: 200.0 mg/kg/injection, schedule: Q04DX003 (ip), vehicle: saline with Tween-80
[3] = dose: 60.0 mg/kg/injection, schedule: Q01DX005 (ip), vehicle: Klucel (hydroxypropylcellulose) (HPC)
[4] = dose: 120.0 mg/kg/injection, schedule: Q01DX005 (ip), vehicle: Klucel (hydroxypropylcellulose) (HPC)
[5] = dose: 240.0 mg/kg/injection, schedule: Q01DX005 (ip), vehicle: Klucel (hydroxypropylcellulose) (HPC)
[6] = dose: 60.0 mg/kg/injection, schedule: Q01DX005 (ip), vehicle: saline with Tween-80
[7] = dose: 120.0 mg/kg/injection, schedule: Q01DX005 (ip), vehicle: saline with Tween-80
[8] = dose: 240.0 mg/kg/injection, schedule: Q01DX005 (ip), vehicle: saline with Tween-80
[9] = dose: 12.5 mg/kg/injection, schedule: Q01DX009 (ip), vehicle: Klucel (hydroxypropylcellulose) (HPC)
[10] = dose: 25.0 mg/kg/injection, schedule: Q01DX009 (ip), vehicle: Klucel (hydroxypropylcellulose) (HPC)
[11] = dose: 50.0 mg/kg/injection, schedule: Q01DX009 (ip), vehicle: saline with Tween-80
[12] = dose: 100.0 mg/kg/injection, schedule: Q01DX009 (ip), vehicle: saline with Tween-80
[13] = dose: 200.0 mg/kg/injection, schedule: Q01DX009 (ip), vehicle: saline with Tween-80
[14] = dose: 50.0 mg/kg/injection, schedule: Q01DX005 (ip), vehicle: saline with Tween-80
[15] = dose: 100.0 mg/kg/injection, schedule: Q01DX005 (ip), vehicle: saline with Tween-80
[16] = dose: 200.0 mg/kg/injection, schedule: Q01DX005 (ip), vehicle: saline with Tween-80
[17] = dose: 50.0 mg/kg/injection, schedule: Q01DX009 (ip), vehicle: Klucel (hydroxypropylcellulose) (HPC)
[18] = dose: 100.0 mg/kg/injection, schedule: Q01DX009 (ip), vehicle: Klucel (hydroxypropylcellulose) (HPC)
[19] = dose: 25.0 mg/kg/injection, schedule: Q01DX009 (ip), vehicle: saline with Tween-80
[20] = dose: 200.0 mg/kg/injection, schedule: Q01DX009 (ip), vehicle: Klucel (hydroxypropylcellulose) (HPC)
[21] = dose: 50.0 mg/kg/injection, schedule: Q01DX005 (ip), vehicle: Klucel (hydroxypropylcellulose) (HPC)
[22] = dose: 100.0 mg/kg/injection, schedule: Q01DX005 (ip), vehicle: Klucel (hydroxypropylcellulose) (HPC)
[23] = dose: 200.0 mg/kg/injection, schedule: Q01DX005 (ip), vehicle: Klucel (hydroxypropylcellulose) (HPC)

CCOC(=O)/N=c1/nc2ccn(C)c2c(NC(=O)OCC)s1
T/C [1]: 99 % of control | T/C [2]: 96 % of control | T/C (dose: 400.0 mg/kg/injection, schedule: Q04DX003 (ip), vehicle: saline with Tween-80): 96 % of control

CCCCCCCCCCCCCCCC[N+]1(CC)CCCCC1
T/C (dose: 0.59 mg/kg/injection, schedule: Q01DX009 (ip), vehicle: saline): 121 % of control | T/C (dose: 0.78 mg/kg/injection, schedule: Q01DX009 (ip), vehicle: saline): 89 % of control

CCCCCCc1cc(-c2cc(CCCCCC)[nH]n2)n[nH]1
T/C [3]: 100 % of control | T/C [4]: 98 % of control | T/C [5]: 95 % of control

CCCCCCCCCCCCCCOC(=O)C(N)Cc1ccc(O)cc1 (stereo unspecified)
T/C [3]: 100 % of control | T/C [4]: 100 % of control | T/C [5]: 100 % of control

COc1cccc(N2CC3CC4C=CC3(C2)O4)c1 (stereo unspecified)
T/C [3]: 98 % of control | T/C [4]: 100 % of control | T/C [5]: 97 % of control

C=C1CC2(CCCCC2c2ccccc2)OC1=O (stereo unspecified)
T/C (dose: 100.0 mg/kg/injection, schedule: Q04DX002 (ip), vehicle: Klucel (hydroxypropylcellulose) (HPC)): 97 % of control | T/C (dose: 200.0 mg/kg/injection, schedule: Q04DX002 (ip), vehicle: Klucel (hydroxypropylcellulose) (HPC)): 103 % of control | T/C (dose: 400.0 mg/kg/injection, schedule: Q04DX002 (ip), vehicle: Klucel (hydroxypropylcellulose) (HPC)): 103 % of control

CCC(c1ccc(O)cc1)C(CC)c1ccc(OCC(N)=O)cc1 (stereo unspecified)
T/C [6]: 92 % of control | T/C [7]: 94 % of control | T/C [8]: 94 % of control

C=CCSc1nc2ccc(NC(C)=O)cc2s1
T/C (dose: 6.25 mg/kg/injection, schedule: Q01DX009 (ip), vehicle: Klucel (hydroxypropylcellulose) (HPC)): 104 % of control | T/C [9]: 108 % of control | T/C [10]: 94 % of control

Clc1ccc(C2=NC(c3ccccc3)/C(=C/c3ccccc3)S2)cc1 (stereo unspecified)
T/C [11]: 101 % of control | T/C [12]: 98 % of control | T/C [13]: 90 % of control

OCN(CO)c1nc(CCC(Cl)(Cl)Cl)nc(N(CO)CO)n1
T/C (dose: 12.5 mg/kg/injection, schedule: Q01DX009 (ip), vehicle: distilled water + Tween-80): 96 % of control | T/C (dose: 25.0 mg/kg/injection, schedule: Q01DX009 (ip), vehicle: distilled water + Tween-80): 99 % of control | T/C (dose: 50.0 mg/kg/injection, schedule: Q01DX009 (ip), vehicle: distilled water + Tween-80): 114 % of control | T/C (dose: 100.0 mg/kg/injection, schedule: Q01DX009 (ip), vehicle: distilled water + Tween-80): 116 % of control | T/C (dose: 200.0 mg/kg/injection, schedule: Q01DX009 (ip), vehicle: distilled water + Tween-80): 89 % of control

O=C1N2CCNc3ccccc3C(c3ccccc3)N1CC2 (stereo unspecified)
T/C (dose: 6.25 mg/kg/injection, schedule: Q01DX005 (ip), vehicle: Klucel (hydroxypropylcellulose) (HPC)): 88 % of control | T/C (dose: 12.5 mg/kg/injection, schedule: Q01DX005 (ip), vehicle: Klucel (hydroxypropylcellulose) (HPC)): 93 % of control | T/C (dose: 25.0 mg/kg/injection, schedule: Q01DX005 (ip), vehicle: Klucel (hydroxypropylcellulose) (HPC)): 102 % of control

c1ccc2c(c1)oc1c3c(ccc12)NCCC3
T/C [14]: 104 % of control | T/C [15]: 99 % of control | T/C [16]: 104 % of control

O=c1nc2c3[nH]cnc3ncn2o1
T/C [9]: 101 % of control | T/C [10]: 106 % of control | T/C [17]: 101 % of control and 93 % of control | T/C [18]: 105 % of control

CSc1nccn[n+]1C
T/C (dose: 100.0 mg/kg/injection, schedule: Q01DX001 (ip), vehicle: saline): 112 % of control | T/C (dose: 200.0 mg/kg/injection, schedule: Q01DX001 (ip), vehicle: saline): 111 % of control

OC(c1ccccc1)C1CCNCC1 (stereo unspecified) (tested in a mixture with another compound)
T/C [6]: 105 % of control | T/C [7]: 96 % of control | T/C [8]: 99 % of control

Cc1ccc(S(=O)(=O)N=Nc2c(O)c3ccccc3c3ccccc23)cc1
T/C [14]: 103 % of control | T/C [15]: 103 % of control | T/C [16]: 100 % of control

CSCCC(N)C(=O)OCN1C(=O)C2C3C=CC(C2C1=O)C1C2C(=O)N(COC(=O)C(N)CCSC)C(=O)C2C31 (stereo unspecified)
T/C (dose: 12.5 mg/kg/injection, schedule: Q01DX009 (ip), vehicle: saline): 117 % of control | T/C (dose: 25.0 mg/kg/injection, schedule: Q01DX009 (ip), vehicle: saline): 122 % of control and 93 % of control | T/C (dose: 50.0 mg/kg/injection, schedule: Q01DX009 (ip), vehicle: saline): 109 % of control | T/C (dose: 100.0 mg/kg/injection, schedule: Q01DX009 (ip), vehicle: saline): 171 % of control and 200 % of control

Cc1cc(Cl)ccc1NC(=O)C(=O)C(C#N)c1c(Cl)cccc1Cl (stereo unspecified)
T/C (dose: 100.0 mg/kg/injection, schedule: Q04DX002 (ip), vehicle: saline with Tween-80): 101 % of control | T/C (dose: 200.0 mg/kg/injection, schedule: Q04DX002 (ip), vehicle: saline with Tween-80): 105 % of control | T/C (dose: 400.0 mg/kg/injection, schedule: Q04DX002 (ip), vehicle: saline with Tween-80): 100 % of control

c1ccc(NSc2ccccc2)cc1
T/C [10]: 119 % of control | T/C [19]: 100 % of control | T/C [17]: 103 % of control and 119 % of control | T/C [11]: 98 % of control | T/C [18]: 101 % of control and 121 % of control | T/C [12]: 109 % of control | T/C [20]: 106 % of control | T/C [13]: 100 % of control

CC1(C)CC(Nc2ccccc2)=CC(Nc2ccccc2)=N1
T/C [21]: 105 % of control | T/C [22]: 98 % of control | T/C [23]: 105 % of control

COC(=O)c1c(OC)cc2cc3c(c(O)c2c1C)C(=O)C1(O)C(=O)C=C(OC)C(OC(=O)CC(C)N)=C1C3=O (stereo unspecified)
T/C (dose: 25.0 mg/kg/injection, schedule: Q01DX005 (ip), vehicle: water): 103 % of control | T/C (dose: 50.0 mg/kg/injection, schedule: Q01DX005 (ip), vehicle: water): 100 % of control | T/C (dose: 100.0 mg/kg/injection, schedule: Q01DX005 (ip), vehicle: water): 104 % of control

O=C1CCSC(=S)N1C(=O)c1ccccc1
T/C [17]: 104 % of control | T/C [18]: 104 % of control | T/C [20]: 109 % of control

CC(=O)Oc1ccc(CC(=O)O)cc1
T/C [19]: 107 % of control | T/C [11]: 103 % of control | T/C [12]: 103 % of control | T/C [13]: 107 % of control

Clc1cccc(Cl)c1C(Nc1ncccn1)Nc1ncccn1
T/C [21]: 106 % of control | T/C [22]: 100 % of control | T/C [23]: 97 % of control

CCOP(=O)(O)OCC
T/C (dose: 100.0 mg/kg/injection, schedule: Q04DX003 (ip), vehicle: Klucel (hydroxypropylcellulose) (HPC)): 93 % of control | T/C (dose: 200.0 mg/kg/injection, schedule: Q04DX003 (ip), vehicle: Klucel (hydroxypropylcellulose) (HPC)): 89 % of control | T/C (dose: 400.0 mg/kg/injection, schedule: Q04DX003 (ip), vehicle: Klucel (hydroxypropylcellulose) (HPC)): 96 % of control

O=C(O)c1nc2cn1/C=C\C=NCC1=CN3C=CC=NC3(C(=O)O)N1C2 (stereo unspecified)
T/C [19]: 101 % of control | T/C [11]: 109 % of control | T/C [12]: 95 % of control

CCOC(=O)C(=CC(CC)(C(=O)OCC)C(=O)OCC)C(=O)OCC
T/C [1]: 110 % of control | T/C [2]: 110 % of control | T/C (dose: 300.0 mg/kg/injection, schedule: Q04DX003 (ip), vehicle: saline): 109 % of control | T/C (dose: 450.0 mg/kg/injection, schedule: Q04DX003 (ip), vehicle: saline): 100 % of control | T/C (dose: 600.0 mg/kg/injection, schedule: Q04DX003 (ip), vehicle: saline): 109 % of control

C[C@]12CC[C@H](OC(=O)Cc3ccc(N(CCCl)CCCl)cc3)CC1CC[C@@H]1C2CC[C@]2(C)NC(=O)CCC12 (stereo partly specified)
T/C (dose: 50.0 mg/kg/injection, schedule: Q01DX001 (ip), vehicle: saline with Tween-80): 195 % of control | T/C (dose: 100.0 mg/kg/injection, schedule: Q01DX001 (ip), vehicle: saline with Tween-80): 243 % of control and 294 % of control

Nc1nc(N)c2cc([N+](=O)[O-])ccc2n1
T/C [6]: 93 % of control | T/C [7]: 94 % of control | T/C [8]: 96 % of control
